According to ChEMBL document CHEMBL5465560, “Selectivity Literature for EUbOPEN Chemogenomic Library” (2024):

Tests used:
[1] = target: Serine/threonine-protein kinase pim-3 (Homo sapiens) (UniProt Q86V86); assay: Selectivity interaction (Kinase panel (literature)) EUB0001199aCl PIM3; conditions: at 1 µM
[2] = target: T1, 5-hydroxytryptamine receptor 1A (Homo sapiens) (UniProt P08908); assay: Selectivity interaction (Safety Panel 44tm (Eurofins)) EUB0000162b HTR1A; conditions: at 10 µM
T1 sequence (whole entry): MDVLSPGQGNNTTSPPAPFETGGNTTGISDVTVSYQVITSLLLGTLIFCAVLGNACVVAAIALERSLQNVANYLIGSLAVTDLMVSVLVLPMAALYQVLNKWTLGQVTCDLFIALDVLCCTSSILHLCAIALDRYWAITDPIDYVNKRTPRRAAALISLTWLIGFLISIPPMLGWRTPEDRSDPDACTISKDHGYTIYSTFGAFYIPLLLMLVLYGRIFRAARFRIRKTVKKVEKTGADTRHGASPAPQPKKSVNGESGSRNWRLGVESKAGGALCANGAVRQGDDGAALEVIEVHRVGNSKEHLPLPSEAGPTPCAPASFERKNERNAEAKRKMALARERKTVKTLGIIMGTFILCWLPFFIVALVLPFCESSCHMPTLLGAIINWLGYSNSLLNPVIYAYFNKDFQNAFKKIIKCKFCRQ

[3] = target: T2, Ribosomal protein S6 kinase alpha-1 (Homo sapiens, UniProt Q15418); assay: Selectivity interaction (Kinase panel (KiNativ target engagement assay in Jurkat cells)) EUB0001635a RPS6KA1; type: cell-based; conditions: Selectivity number of off-targets 0.0, Selectivity number of targets 233.0, Source Knowledge https://www.sciencedirect.com/science/article/pii/S2451945619300674?via%3Dihub, at 1 µM
[4] = target: T3, Tyrosine-protein kinase JAK2 (Homo sapiens, UniProt O60674); assay: Selectivity interaction (NanoBRET assay (HEK293T cells)) EUB0001559a JAK2; type: cell-based, HEK-293T
[5] = target: Cyclin-dependent kinase 5 (Homo sapiens, UniProt Q00535); assay: Selectivity interaction (ActivX KiNativ screen (kinase selectivity in THP-1 cell lysates)) EUB0000639a CDK5; type: subcellular; conditions: lysate, at 0.01 µM
[6] = target: T3, Tyrosine-protein kinase JAK2; assay: Selectivity interaction (KinomeScan (DiscoverX)) EUB0000595a JAK2; conditions: at 10 µM
[7] = target: T4, Tyrosine-protein kinase TXK (Homo sapiens) (UniProt P42681); assay: Selectivity interaction (KinomeScan (DiscoverX)) EUB0000595a TXK; conditions: at 10 µM
T4 sequence (whole entry): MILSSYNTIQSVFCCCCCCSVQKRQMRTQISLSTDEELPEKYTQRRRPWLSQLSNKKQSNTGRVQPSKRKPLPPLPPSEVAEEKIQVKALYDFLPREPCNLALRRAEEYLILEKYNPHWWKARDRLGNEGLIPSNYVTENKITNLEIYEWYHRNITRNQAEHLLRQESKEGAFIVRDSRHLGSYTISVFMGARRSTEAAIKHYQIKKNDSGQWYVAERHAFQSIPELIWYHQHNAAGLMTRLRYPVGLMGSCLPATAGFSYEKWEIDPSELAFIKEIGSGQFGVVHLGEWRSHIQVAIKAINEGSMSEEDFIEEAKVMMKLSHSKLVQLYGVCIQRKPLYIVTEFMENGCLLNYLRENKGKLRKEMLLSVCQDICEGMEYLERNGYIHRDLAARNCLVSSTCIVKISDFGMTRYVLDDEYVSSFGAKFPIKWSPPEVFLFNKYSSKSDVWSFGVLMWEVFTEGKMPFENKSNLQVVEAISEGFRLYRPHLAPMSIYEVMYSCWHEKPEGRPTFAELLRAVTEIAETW

[8] = target: TRAF2 and NCK-interacting protein kinase (Homo sapiens) (UniProt Q9UKE5); assay: Selectivity interaction (KinomeScan (DiscoverX)) EUB0000092b TNIK; conditions: at 10 µM
[9] = target: T5, Serine/threonine-protein kinase ULK2 (Homo sapiens) (UniProt Q8IYT8); assay: Selectivity interaction (KinomeScan (DiscoverX)) EUB0000092b ULK2; conditions: at 10 µM
T5 sequence (whole entry): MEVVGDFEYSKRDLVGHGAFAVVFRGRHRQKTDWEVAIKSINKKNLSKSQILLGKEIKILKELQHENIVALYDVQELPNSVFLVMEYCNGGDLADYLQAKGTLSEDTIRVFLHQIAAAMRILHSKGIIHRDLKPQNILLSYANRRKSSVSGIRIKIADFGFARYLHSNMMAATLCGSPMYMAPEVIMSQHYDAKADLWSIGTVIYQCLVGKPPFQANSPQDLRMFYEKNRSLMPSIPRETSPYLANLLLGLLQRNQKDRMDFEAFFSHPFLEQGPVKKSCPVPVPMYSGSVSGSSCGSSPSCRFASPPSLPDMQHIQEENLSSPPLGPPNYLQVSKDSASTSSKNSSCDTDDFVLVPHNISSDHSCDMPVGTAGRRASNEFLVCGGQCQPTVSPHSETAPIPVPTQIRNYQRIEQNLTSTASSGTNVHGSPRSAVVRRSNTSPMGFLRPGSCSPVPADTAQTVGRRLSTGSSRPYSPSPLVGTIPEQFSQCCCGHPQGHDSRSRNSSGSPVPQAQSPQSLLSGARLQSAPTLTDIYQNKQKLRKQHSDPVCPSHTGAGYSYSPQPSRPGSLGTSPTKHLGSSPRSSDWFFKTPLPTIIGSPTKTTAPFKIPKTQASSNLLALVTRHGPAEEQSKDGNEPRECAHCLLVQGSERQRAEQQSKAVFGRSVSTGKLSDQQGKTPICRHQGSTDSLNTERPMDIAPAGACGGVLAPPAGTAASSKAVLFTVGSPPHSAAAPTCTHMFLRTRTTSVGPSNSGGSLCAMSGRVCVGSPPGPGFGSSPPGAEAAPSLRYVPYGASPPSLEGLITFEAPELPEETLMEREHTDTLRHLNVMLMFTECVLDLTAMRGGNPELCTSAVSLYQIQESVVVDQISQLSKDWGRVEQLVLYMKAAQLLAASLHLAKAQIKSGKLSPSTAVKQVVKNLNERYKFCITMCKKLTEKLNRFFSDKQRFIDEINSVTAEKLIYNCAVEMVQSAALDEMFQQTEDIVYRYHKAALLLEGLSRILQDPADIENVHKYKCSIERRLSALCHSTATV

[10] = target: Cyclin-dependent kinase 14 (Homo sapiens) (UniProt O94921); assay: Selectivity interaction (KinomeScan (DiscoverX)) EUB0001619a CDK14; conditions: at 1 µM
[11] = target: Phosphatidylinositol 4,5-bisphosphate 3-kinase catalytic subunit beta isoform (Homo sapiens) (UniProt P42338); assay: Selectivity interaction (KinomeScan (DiscoverX)) EUB0001619a PIK3CB; conditions: at 1 µM
[12] = target: T2, Ribosomal protein S6 kinase alpha-1; assay: Selectivity interaction (ActivX KiNativ screen (ex vivo kinase selectivity in human PBMCs)) EUB0001619a RPS6KA1; type: cell-based; conditions: PBMC, at 1 µM
[13] = target: Dual specificity testis-specific protein kinase 1 (Homo sapiens) (UniProt Q15569); assay: Selectivity interaction (KinomeScan (DiscoverX)) EUB0000655a TESK1; conditions: at 10 µM
[14] = target: Calcium/calmodulin-dependent protein kinase type 1D (Homo sapiens) (UniProt Q8IU85); assay: Selectivity interaction (SelectScreen profiling (Invitrogen)) EUB0000607a CAMK1D; conditions: at 2 µM
Calcium/calmodulin-dependent protein kinase type 1D (Homo sapiens), sequence (Q8IU85 whole entry, looked up): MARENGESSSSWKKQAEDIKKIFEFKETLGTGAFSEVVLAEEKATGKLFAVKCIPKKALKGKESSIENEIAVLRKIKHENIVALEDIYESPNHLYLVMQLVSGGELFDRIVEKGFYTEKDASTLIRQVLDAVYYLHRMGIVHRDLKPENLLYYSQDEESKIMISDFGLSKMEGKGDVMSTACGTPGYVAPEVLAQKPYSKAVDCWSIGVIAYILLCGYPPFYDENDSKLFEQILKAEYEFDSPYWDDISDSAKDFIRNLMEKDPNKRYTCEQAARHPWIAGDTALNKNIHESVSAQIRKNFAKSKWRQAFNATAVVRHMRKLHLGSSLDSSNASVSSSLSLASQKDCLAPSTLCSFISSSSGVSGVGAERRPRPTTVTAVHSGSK

T3 sequence (O60674 whole entry): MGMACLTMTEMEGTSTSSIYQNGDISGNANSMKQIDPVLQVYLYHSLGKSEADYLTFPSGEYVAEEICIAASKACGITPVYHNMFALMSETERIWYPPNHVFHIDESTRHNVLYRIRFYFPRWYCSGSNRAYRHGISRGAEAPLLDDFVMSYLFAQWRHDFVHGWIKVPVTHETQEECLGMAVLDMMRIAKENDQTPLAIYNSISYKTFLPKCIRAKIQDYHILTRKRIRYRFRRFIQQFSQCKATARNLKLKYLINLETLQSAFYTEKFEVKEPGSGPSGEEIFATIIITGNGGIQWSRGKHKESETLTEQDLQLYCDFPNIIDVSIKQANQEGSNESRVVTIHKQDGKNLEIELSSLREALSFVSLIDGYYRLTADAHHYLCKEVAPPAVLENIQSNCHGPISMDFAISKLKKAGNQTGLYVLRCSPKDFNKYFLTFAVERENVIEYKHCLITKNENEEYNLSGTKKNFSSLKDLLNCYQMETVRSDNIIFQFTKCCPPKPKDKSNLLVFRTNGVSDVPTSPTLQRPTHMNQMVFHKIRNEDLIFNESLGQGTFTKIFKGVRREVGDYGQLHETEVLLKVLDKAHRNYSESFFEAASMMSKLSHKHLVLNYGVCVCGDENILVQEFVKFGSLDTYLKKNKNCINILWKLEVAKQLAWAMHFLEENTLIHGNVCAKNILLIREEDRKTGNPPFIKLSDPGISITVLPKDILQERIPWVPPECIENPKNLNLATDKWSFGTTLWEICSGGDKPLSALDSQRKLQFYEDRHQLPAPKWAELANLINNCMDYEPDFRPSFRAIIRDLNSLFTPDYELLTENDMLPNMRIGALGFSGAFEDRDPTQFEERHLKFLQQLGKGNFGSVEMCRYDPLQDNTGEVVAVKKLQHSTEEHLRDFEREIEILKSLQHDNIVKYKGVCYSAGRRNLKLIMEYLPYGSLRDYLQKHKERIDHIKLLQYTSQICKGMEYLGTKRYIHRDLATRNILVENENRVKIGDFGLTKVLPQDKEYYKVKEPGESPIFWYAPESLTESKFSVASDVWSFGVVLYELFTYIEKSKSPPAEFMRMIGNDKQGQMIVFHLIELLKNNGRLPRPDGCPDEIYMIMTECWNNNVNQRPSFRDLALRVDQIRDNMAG
T2 sequence (Q15418 whole entry): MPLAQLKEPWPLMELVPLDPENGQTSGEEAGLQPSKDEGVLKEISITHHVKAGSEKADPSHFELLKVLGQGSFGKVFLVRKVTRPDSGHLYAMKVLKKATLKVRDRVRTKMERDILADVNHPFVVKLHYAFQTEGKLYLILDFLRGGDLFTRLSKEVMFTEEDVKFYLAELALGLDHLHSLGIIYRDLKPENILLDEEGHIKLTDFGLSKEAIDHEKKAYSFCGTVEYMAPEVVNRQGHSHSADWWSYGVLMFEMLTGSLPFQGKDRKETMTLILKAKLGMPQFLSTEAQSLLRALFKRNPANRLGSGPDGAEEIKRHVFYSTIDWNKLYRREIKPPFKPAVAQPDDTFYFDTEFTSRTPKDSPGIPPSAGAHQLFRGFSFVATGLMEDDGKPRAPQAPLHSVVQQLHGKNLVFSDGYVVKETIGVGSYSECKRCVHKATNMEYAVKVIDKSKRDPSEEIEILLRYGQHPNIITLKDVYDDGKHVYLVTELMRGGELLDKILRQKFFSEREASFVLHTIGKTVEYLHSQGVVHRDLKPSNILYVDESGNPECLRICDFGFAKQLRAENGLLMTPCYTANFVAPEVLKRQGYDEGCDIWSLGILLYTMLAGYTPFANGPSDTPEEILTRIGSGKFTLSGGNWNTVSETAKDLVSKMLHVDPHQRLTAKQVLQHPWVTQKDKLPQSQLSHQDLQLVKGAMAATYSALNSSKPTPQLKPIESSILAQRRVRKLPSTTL
TRAF2 and NCK-interacting protein kinase (Homo sapiens), sequence (Q9UKE5 whole entry, looked up): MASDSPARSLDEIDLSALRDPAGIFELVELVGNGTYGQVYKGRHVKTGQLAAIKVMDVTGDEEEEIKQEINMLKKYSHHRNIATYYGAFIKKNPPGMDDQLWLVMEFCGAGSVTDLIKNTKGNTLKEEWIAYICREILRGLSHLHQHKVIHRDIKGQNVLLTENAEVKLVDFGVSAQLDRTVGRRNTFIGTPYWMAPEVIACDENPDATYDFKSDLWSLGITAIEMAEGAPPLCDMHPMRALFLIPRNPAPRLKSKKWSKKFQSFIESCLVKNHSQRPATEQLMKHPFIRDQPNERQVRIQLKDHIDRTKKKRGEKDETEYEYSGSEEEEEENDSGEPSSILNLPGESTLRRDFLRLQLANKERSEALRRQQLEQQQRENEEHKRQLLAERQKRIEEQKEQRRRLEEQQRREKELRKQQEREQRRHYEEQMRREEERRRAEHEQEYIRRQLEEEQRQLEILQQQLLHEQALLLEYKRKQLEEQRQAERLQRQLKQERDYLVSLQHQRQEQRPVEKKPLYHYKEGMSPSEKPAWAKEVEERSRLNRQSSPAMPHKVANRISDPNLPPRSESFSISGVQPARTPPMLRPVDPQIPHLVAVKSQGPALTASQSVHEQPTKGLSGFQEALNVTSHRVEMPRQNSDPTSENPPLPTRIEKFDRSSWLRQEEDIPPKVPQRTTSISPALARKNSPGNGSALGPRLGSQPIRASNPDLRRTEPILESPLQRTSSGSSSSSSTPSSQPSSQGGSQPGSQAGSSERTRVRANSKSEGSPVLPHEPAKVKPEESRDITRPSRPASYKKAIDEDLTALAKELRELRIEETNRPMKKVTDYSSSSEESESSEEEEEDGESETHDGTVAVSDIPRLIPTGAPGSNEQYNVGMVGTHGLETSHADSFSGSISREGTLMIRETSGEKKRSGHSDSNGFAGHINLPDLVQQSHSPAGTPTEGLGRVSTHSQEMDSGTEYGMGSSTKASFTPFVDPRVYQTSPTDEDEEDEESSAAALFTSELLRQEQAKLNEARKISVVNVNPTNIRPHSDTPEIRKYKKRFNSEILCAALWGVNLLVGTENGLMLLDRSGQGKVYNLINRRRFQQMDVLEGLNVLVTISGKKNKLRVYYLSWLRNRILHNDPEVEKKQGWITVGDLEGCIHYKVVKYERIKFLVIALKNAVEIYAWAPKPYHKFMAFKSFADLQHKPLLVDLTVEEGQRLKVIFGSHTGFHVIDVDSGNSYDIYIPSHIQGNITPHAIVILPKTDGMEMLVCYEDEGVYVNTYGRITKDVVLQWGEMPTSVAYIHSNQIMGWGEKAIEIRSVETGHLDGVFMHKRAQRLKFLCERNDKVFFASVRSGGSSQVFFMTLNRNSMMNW
Dual specificity testis-specific protein kinase 1 (Homo sapiens), sequence (Q15569 whole entry, looked up): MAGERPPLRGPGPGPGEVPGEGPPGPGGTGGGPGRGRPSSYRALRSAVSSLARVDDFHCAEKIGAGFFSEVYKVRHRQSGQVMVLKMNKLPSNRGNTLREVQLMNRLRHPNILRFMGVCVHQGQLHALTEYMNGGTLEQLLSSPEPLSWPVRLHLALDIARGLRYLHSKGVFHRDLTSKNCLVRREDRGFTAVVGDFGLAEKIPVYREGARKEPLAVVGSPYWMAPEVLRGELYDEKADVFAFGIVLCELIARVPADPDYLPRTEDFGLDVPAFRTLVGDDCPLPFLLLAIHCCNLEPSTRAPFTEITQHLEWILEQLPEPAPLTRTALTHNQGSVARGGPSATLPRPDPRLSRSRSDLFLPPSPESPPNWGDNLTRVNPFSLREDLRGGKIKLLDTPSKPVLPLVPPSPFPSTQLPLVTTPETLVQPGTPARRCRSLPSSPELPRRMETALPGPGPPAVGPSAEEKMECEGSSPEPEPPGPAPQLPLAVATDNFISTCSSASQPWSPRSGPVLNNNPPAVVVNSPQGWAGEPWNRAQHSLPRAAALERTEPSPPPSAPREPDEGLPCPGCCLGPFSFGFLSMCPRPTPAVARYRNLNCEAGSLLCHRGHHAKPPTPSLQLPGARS
Cyclin-dependent kinase 14 (Homo sapiens), sequence (O94921 whole entry, canonical isoform): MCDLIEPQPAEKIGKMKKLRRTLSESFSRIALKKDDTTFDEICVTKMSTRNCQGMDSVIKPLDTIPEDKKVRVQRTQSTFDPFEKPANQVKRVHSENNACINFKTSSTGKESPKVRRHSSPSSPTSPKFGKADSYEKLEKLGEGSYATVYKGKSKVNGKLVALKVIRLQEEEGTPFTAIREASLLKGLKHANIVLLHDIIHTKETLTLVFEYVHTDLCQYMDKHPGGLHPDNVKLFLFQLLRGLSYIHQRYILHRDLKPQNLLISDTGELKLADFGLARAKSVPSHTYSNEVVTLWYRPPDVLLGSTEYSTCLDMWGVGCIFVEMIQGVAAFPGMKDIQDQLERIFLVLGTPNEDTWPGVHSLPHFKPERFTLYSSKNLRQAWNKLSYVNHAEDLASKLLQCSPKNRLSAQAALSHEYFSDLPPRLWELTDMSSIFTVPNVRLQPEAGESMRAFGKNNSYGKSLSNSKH

Question: With CN1Cc2nccc(-c3cn(C)nc3-c3ccc(F)cc3)c2C1=O as the compound, how does the % of inhibition [1] read?
Answer: 1%

Question: CN(C)C(=O)Cn1cc(-c2ccc(-c3cncc4ccccc34)cc2)cn1 was tested. Which % of control [2] did it give?
Answer: 50%

Question: C=CC(=O)Nc1ccc(C(=O)Nc2[nH]nc3c2CN(C(=O)N[C@H](CN(C)C)c2ccccc2)C3(C)C)cc1 was tested. Which % of engagement [3] did it give?
Answer: 1.2%

Question: How did the EC50 [4] turn out when CN(C(=O)c1cnn2cccnc12)c1cc2c(cc1N1CCOCC1)C(=O)N(C[C@@H](F)C(C)(C)O)C2 was run?
Answer: > 50 µM

Question: CC[C@@H]1[C@H](F)C(=O)N[C@@H]1COc1nccc2cc(C(N)=O)c(OC)cc12 [ZIMLOVISERTIB] was tested. Which % of inhibition [5] did it give?
Answer: -4.7%

Question: What does the source list for COCC(=O)NC/C=C/c1ccc2ncnc(Nc3ccc(Oc4ccc(C)nc4)c(C)c3)c2c1 [CP-724714]?
Answer: % of control [6]: 100%; % of control [7]: 84%

Question: What does the source list for CCC(=O)N1CCN(c2ccc(-n3c(=O)ccc4cnc5ccc(-c6cnc7ccccc7c6)cc5c43)cc2C(F)(F)F)CC1?
Answer: % of control [8]: 39%; % of control [9]: 75%

Question: N#Cc1cccc(-c2c[nH]c3ncnc(N4CCOCC4)c23)c1 was tested. Which % of control [10] did it give?
Answer: 100%

Question: What about the % of control [11] of the same compound?
Answer: 100%

Question: What about the % of inhibition [12] of the same compound?
Answer: 33%

Question: CN(C)CCOc1ccc(-c2nc(-c3ccncc3)c(-c3ccc4c(c3)CC/C4=N\O)[nH]2)cc1 was tested. Which % of control [13] did it give?
Answer: 76%

Question: Which % of inhibition [14] does the source give for CNC(=O)Nc1ccc(-c2nc(N3CC4CCC(C3)O4)c3cnn(C4CCC5(CC4)OCCO5)c3n2)cc1 here?
Answer: 0%
